These results are taken from patent publication US11981658B2, “Substituted aminopyridine compounds as EGFR inhibitors” (YUHAN CORPORATION, priority 2021, dated 2024).

Structures are written as SMILES. Read-outs that look alike come from different tables or passages of the source. A value given as a limit tells only on which side of the number the result lay.

Test [1] has as its target EGFR Del19/T790M/C797S (Homo sapiens, UniProt P00533, C797S/DEL746-750/T790M). Put plainly: Biochemical EGFR kinase inhibition assay (Lance Ultra TR-FRET), triple mutant del19/T790M/C797S. In short, it runs like this: (§1)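 Enzyme reactions lasted 1 hour at room temperature with test compounds between 0.003 and 10 μM, followed by 10 mM EDTA quench.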
(TR-FRET usually uses a lanthanide donor and a delayed reading to cut background.)

Test [2] deals with EGFR L858R/T790M/C797S (Homo sapiens, UniProt P00533, C797S/L858R/T790M). The test is described as follows: Biochemical EGFR kinase inhibition assay (Lance Ultra TR-FRET), triple mutant L858R/T790M/C797S. Put shortly: as §1
In test [3] the target is EGFR Del19/C797S (Homo sapiens, UniProt P00533, C797S/DEL746-750). The test is described as follows: Biochemical EGFR kinase inhibition assay (Lance Ultra TR-FRET), double mutant del19/C797S. Put shortly:
as §1

Test [4] concerns the target EGFR L858R/C797S (Homo sapiens, UniProt P00533, C797S/L858R). Put plainly: Biochemical EGFR kinase inhibition assay (Lance Ultra TR-FRET), double mutant L858R/C797S. Put shortly: as §1
In test [5] the target is EGFR wildtype (WT) (Homo sapiens, UniProt P00533). Put plainly: Biochemical EGFR kinase inhibition assay (Lance Ultra TR-FRET), wildtype. Put shortly: as §1
Where [6] appears, read: ATP at Km, read-out: IC50 Del19/T790M/C797S (nM), Km ATP.
Where [7] appears, read: IC50 Del19/T790M/C797S (nM), 100 μM ATP.
The mark [8] stands for this setting: ATP at Km, read-out: IC50 L858R/T790M/C797S (nM), Km ATP.
[9] abbreviates: IC50 L858R/T790M/C797S (nM), 100 μM ATP.
Setting [10] is: ATP at Km, read-out: IC50 Del19/C797S (nM), Km ATP.
[11] abbreviates: IC50 Del19/C797S (nM), 100 μM ATP.
[12] abbreviates: ATP at Km, read-out: IC50 L858R/C797S (nM), Km ATP.
The mark [13] stands for this setting: IC50 L858R/C797S (nM), 100 μM ATP.
[14] abbreviates: ATP at Km, read-out: IC50 WT (nM), Km ATP.
[15] abbreviates: Km ATP, read-out: IC50 Del19/T790M/C797S (nM), Km ATP.
The mark [16] stands for this setting: Km ATP, read-out: IC50 L858R/T790M/C797S (nM), Km ATP.
Where [17] appears, read: Km ATP, read-out: IC50 Del19/C797S (nM), Km ATP.
The mark [18] stands for this setting: Km ATP, read-out: IC50 L858R/C797S (nM), Km ATP.
Where [19] appears, read: Km ATP, read-out: IC50 WT (nM), Km ATP.

Sequence of EGFR Del19/C797S (P00533 with tags, fused parts or gaps DEL746-750/C797S): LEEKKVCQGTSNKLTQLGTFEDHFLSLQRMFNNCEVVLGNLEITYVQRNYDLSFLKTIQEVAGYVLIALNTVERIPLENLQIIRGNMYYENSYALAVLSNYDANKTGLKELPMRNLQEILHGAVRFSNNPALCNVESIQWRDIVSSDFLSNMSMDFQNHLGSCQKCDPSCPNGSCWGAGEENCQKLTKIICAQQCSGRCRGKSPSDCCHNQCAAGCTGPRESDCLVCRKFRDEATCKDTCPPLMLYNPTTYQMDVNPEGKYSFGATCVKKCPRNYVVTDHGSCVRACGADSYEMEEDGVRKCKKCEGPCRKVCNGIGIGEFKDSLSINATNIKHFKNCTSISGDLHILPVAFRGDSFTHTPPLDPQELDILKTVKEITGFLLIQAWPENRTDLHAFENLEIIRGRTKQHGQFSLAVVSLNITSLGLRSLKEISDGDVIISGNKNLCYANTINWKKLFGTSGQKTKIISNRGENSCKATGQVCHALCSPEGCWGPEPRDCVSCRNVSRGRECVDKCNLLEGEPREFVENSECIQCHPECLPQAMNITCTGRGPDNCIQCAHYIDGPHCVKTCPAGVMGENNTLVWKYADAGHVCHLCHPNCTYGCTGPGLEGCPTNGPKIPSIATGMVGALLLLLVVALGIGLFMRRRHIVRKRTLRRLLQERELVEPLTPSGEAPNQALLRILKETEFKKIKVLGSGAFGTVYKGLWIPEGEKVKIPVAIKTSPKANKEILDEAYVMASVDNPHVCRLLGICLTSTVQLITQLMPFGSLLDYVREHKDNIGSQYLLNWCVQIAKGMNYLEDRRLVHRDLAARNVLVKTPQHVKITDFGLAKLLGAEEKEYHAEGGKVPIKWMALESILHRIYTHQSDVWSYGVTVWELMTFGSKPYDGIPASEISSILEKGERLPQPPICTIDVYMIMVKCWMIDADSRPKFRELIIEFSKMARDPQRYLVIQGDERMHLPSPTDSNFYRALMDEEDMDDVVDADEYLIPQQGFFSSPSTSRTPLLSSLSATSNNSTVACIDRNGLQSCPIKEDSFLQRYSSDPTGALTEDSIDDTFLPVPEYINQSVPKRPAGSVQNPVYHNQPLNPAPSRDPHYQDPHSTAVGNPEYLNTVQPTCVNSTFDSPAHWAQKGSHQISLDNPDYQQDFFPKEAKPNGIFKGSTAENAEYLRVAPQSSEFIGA
Sequence of EGFR wildtype (WT) (P00533 25-1210): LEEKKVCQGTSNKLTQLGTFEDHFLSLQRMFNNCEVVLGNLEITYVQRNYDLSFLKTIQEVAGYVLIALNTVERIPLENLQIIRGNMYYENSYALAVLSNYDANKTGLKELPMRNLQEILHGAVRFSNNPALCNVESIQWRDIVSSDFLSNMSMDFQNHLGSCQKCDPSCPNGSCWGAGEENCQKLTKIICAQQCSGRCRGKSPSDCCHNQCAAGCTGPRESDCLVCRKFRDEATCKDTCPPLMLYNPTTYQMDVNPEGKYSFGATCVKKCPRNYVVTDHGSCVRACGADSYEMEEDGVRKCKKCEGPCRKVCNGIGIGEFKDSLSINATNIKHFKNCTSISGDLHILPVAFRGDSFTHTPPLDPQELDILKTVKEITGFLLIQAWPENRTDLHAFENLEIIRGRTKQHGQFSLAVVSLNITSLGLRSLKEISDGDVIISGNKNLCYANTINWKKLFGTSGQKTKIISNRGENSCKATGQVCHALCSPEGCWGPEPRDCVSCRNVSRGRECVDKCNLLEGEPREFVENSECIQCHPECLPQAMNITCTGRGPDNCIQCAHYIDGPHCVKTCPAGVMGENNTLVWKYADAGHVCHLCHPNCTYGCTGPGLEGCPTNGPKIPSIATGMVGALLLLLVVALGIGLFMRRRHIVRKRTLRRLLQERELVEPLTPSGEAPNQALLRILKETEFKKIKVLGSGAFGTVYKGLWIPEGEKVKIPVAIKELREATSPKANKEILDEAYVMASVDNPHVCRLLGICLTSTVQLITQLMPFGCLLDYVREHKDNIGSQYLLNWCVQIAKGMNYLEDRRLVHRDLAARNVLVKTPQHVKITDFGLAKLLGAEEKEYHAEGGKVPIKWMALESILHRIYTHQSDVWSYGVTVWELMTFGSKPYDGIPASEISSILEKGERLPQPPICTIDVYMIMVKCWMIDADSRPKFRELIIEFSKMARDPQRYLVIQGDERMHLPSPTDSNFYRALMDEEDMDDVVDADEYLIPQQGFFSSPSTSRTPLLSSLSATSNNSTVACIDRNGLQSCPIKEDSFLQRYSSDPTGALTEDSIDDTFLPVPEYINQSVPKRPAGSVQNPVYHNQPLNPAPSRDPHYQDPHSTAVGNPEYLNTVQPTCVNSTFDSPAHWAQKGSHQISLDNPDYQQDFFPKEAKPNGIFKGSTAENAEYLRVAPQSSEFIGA
Sequence of EGFR L858R/T790M/C797S (P00533 25-1210 T790M/C797S/L858R): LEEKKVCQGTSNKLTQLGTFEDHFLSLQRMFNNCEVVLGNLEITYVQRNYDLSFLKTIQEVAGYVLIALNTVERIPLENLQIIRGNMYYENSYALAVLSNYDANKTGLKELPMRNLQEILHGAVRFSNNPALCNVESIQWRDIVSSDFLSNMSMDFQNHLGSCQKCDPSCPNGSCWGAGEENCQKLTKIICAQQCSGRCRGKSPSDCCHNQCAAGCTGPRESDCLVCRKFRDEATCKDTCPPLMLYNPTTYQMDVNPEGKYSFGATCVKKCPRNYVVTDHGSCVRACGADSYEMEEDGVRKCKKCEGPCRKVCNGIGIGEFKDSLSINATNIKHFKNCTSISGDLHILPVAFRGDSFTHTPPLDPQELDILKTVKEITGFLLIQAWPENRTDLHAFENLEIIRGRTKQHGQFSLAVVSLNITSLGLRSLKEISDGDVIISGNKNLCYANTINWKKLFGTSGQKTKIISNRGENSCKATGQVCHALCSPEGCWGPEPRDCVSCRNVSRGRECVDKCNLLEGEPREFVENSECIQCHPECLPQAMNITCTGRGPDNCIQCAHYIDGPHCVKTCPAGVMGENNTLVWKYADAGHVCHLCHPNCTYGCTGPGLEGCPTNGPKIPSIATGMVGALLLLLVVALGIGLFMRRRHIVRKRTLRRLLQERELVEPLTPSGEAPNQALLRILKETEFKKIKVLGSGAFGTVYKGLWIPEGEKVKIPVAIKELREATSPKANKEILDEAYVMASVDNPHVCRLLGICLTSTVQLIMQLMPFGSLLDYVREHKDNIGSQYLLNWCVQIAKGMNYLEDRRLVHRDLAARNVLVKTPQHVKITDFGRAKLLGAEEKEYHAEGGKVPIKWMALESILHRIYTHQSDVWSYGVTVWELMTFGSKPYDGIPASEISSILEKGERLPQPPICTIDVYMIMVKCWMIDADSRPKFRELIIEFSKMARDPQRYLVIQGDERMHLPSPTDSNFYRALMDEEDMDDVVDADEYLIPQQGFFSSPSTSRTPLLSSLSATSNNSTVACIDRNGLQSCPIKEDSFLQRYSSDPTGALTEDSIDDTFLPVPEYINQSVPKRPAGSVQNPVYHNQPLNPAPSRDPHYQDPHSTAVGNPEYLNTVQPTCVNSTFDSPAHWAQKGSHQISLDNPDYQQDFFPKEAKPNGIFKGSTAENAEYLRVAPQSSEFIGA
Sequence of EGFR L858R/C797S (P00533 25-1210 C797S/L858R): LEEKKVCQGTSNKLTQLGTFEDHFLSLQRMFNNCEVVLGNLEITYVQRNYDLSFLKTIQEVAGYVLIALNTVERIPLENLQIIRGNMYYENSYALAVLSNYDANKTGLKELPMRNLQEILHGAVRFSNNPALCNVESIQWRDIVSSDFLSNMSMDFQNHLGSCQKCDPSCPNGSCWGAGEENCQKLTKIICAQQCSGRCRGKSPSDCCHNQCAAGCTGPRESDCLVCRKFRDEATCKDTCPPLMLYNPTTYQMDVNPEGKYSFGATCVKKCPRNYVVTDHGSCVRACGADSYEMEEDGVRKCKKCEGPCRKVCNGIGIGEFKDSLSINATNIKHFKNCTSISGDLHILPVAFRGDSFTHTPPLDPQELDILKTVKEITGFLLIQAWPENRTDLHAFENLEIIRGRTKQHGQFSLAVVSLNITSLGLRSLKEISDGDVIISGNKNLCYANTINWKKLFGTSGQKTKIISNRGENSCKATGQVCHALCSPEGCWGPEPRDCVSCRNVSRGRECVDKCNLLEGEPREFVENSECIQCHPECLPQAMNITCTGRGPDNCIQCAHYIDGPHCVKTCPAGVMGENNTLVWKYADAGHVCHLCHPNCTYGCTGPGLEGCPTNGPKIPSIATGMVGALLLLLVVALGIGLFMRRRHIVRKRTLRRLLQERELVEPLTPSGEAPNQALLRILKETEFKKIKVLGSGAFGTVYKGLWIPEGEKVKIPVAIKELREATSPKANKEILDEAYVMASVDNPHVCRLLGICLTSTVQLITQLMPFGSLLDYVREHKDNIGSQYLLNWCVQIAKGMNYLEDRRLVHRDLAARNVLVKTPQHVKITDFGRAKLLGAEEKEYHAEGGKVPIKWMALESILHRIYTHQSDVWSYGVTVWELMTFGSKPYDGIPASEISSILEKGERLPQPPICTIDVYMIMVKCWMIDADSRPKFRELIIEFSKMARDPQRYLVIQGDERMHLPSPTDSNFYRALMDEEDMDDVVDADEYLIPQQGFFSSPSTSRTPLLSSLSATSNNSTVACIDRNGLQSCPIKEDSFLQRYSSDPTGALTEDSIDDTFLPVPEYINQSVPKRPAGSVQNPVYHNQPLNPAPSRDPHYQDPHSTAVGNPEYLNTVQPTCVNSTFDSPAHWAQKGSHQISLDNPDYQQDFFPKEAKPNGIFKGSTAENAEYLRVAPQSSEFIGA

In the case of `CC1(CO)CCN(c2cc(Nc3ccnc(-c4cnn(S(=O)(=O)C5CC5)c4)n3)ncc2C#Cc2ncc(CN3CCOCC3)cn2)CC1` [Example 193, (1-(2-((2-(1-(Cyclopropylsulfonyl)-1H-pyrazol-4-yl)pyrimidin-4-yl)amino)-5-((5-(morpholinomethyl)pyrimidin-2-yl)ethynyl)pyridin-4-yl)-4-methylpiperidin-4-yl)methanol], the IC50 in test [1] (setting [6]) turned out to be 0.5 nM; in test [1] (setting [7]), 0.6 nM; in test [2] (setting [8]), 0.2 nM; in test [2] (setting [9]) it was 0.5 nM; in test [3] (setting [10]), 0.4 nM; in test [3] (setting [11]) it was 0.7 nM. In addition, the IC50 in test [4] (setting [12]) worked out at 0.9 nM; in test [4] (setting [13]), 6.6 nM; in test [5] (setting [14]), 2.2 nM; in test [5] (IC50 WT (nM), 100 μM ATP), 1270 nM.
As to `CC1(CO)CCN(c2cc(Nc3ccnc(-c4cnn(S(=O)(=O)C5CC5)c4)n3)ncc2C#Cc2cnn(CC3CCOC3)c2)CC1` (stereo not shown) [Example 243, (1-(2-((2-(1-(Cyclopropylsulfonyl)-1H-pyrazol-4-yl)pyrimidin-4-yl)amino)-5-((1-((tetrahydrofuran-3-yl)methyl)-1H-pyrazol-4-yl)ethynyl)pyridin-4-yl)-4-methylpiperidin-4-yl)methanol], the IC50 was 0.9 nM in test [1] (setting [6]); 1.4 nM in test [1] (setting [7]); 0.4 nM in test [2] (setting [8]); 1.8 nM in test [2] (setting [9]); 0.8 nM in test [3] (setting [10]); 0.7 nM in test [3] (setting [11]). For the same molecule, the IC50 in test [4] (setting [12]) amounted to 0.9 nM; in test [4] (setting [13]) it was 14.7 nM; in test [5] (setting [14]), 4.7 nM; in test [5] (IC50 WT (nM), 100 μM ATP), 2170 nM.
In the case of `CC1(CO)CCN(c2cc(Nc3ccnc(-c4cnn(S(=O)(=O)C5CC5)c4)n3)ncc2C#CC2CCS(=O)(=O)C2)CC1` (stereo not shown) [Example 437, 3-((6-((2-(1-(Cyclopropylsulfonyl)-1H-pyrazol-4-yl)pyrimidin-4-yl)amino)-4-(4-(hydroxymethyl)-4-methylpiperidin-1-yl)pyridin-3-yl)ethynyl)tetrahydrothiophene 1,1-dioxide], the IC50 in test [1] (setting [7]) was 0.1 nM; in test [1] (setting [15]) it was 0.1 nM; in test [2] (setting [9]), 0.1 nM; in test [2] (setting [16]), 0.1 nM; in test [3] (setting [11]) it was 1.3 nM; in test [3] (setting [17]), 0.6 nM. For the same molecule, the IC50 was 39.3 nM in test [4] (setting [13]); 0.8 nM in test [4] (setting [18]); above 10000 nM in test [5] (IC50 WT (nM), 100 μM ATP); 3.7 nM in test [5] (setting [19]).
With `CN1CCC(C#Cc2cnc(Nc3ccnc(-c4cnn(S(=O)(=O)C5CC5)c4)n3)cc2N2CCC(C)(CO)CC2)CC1` [Example 182, (1-(2-((2-(1-(Cyclopropylsulfonyl)-1H-pyrazol-4-yl)pyrimidin-4-yl)amino)-5-((1-methylpiperidin-4-yl)ethynyl)pyridin-4-yl)-4-methylpiperidin-4-yl)methanol], the IC50 came out at 0.1 nM in test [1] (setting [6]); 0.1 nM in test [1] (setting [7]); 0.04 nM in test [2] (setting [8]); 0.1 nM in test [2] (setting [9]); 0.4 nM in test [3] (setting [10]); 0.3 nM in test [3] (setting [11]). The IC50 in test [4] (setting [12]) worked out at 0.4 nM; in test [4] (setting [13]), 1.7 nM; in test [5] (setting [14]) it was 1.8 nM; in test [5] (IC50 WT (nM), 100 μM ATP), 648 nM.
As to `Cn1cc(C#Cc2cnc(Nc3ccnc(-c4cnn(S(=O)(=O)C5CC5)c4)n3)cc2N2CCC(C(F)(F)F)CC2)cn1` [Example 65, 2-(1-(Cyclopropylsulfonyl)-1H-pyrazol-4-yl)-N-(5-((1-methyl-1H-pyrazol-4-yl)ethynyl)-4-(4-(trifluoromethyl)piperidin-1-yl)pyridin-2-yl)pyrimidin-4-amine], the IC50 in test [1] (setting [7]) was 8.2 nM; in test [2] (setting [9]), 39.2 nM; in test [3] (setting [11]), 338 nM; in test [4] (setting [13]), 604 nM; in test [5] (IC50 WT (nM), 100 μM ATP), above 10000 nM.
On the same counts, the results for `Cc1nc(C#Cc2cnc(Nc3ccnc(-c4cnn(S(=O)(=O)C5CC5)c4)n3)cc2N2CCC(O)CC2)cs1` [Example 211, 1-(2-((2-(1-(Cyclopropylsulfonyl)-1H-pyrazol-4-yl)pyrimidin-4-yl)amino)-5-((2-methylthiazol-4-yl)ethynyl)pyridin-4-yl)piperidin-4-ol] are 1.4 nM, 6.9 nM, 32.3 nM, 66.2 nM and above 10000 nM.
For `CC(C)(O)[C@H]1CC[C@@H](Nc2cc(Nc3ccnc(-c4cnn(S(=O)(=O)C5CC5)c4)n3)ncc2C#Cc2cnn(CC(F)(F)F)c2)CC1` [Example 346, 2-((1s,4s)-4-((2-((2-(1-(Cyclopropylsulfonyl)-1H-pyrazol-4-yl)pyrimidin-4-yl)amino)-5-((1-(2,2,2-trifluoroethyl)-1H-pyrazol-4-yl)ethynyl)pyridin-4-yl)amino)cyclohexyl)propan-2-ol], in that order: 17.4 nM, 5.8 nM, 45.3 nM, 249 nM and above 10000 nM.
Turning to `Cn1cc(C#Cc2cnc(Nc3ccnc(-c4cnn(S(=O)(=O)C5CC5)c4)n3)cc2N2CCC(C)(CO)CC2)cn1` [Example 12, (1-(2-((2-(1-(Cyclopropylsulfonyl)-1H-pyrazol-4-yl)pyrimidin-4-yl)amino)-5-((1-methyl-1H-pyrazol-4-yl)ethynyl)pyridin-4-yl)-4-methylpiperidin-4-yl)methanol], the IC50 in test [1] (setting [7]) is 0.8 nM; in test [1] (Km ATP, read-out: IC50 Del19/T790M/C797S (nM) Km ATP), 0.7 nM; in test [2] (setting [9]), 0.6 nM; in test [2] (Km ATP, read-out: IC50 L858R/T790M/C797S (nM) Km ATP), 0.3 nM; in test [3] (setting [11]), 1.9 nM; in test [3] (Km ATP, read-out: IC50 Del19/C797S (nM) Km ATP) it was 1.1 nM. Further, the IC50 in test [4] (setting [13]) turned out to be 5.1 nM; in test [4] (Km ATP, read-out: IC50 L858R/C797S (nM) Km ATP), 0.7 nM; in test [5] (IC50 WT (nM), 100 μM ATP), 1100 nM; in test [5] (Km ATP, read-out: IC50 WT (nM) Km ATP), 6 nM.
For the molecule `O=S(=O)(C1CC1)n1cc(-c2nccc(Nc3cc(N[C@H]4CC[C@@H](CO)CC4)c(C#Cc4cnn(C(F)(F)F)c4)cn3)n2)cn1` [Example 336, ((1s,4s)-4-((2-((2-(1-(Cyclopropylsulfonyl)-1H-pyrazol-4-yl)pyrimidin-4-yl)amino)-5-((1-(trifluoromethyl)-1H-pyrazol-4-yl)ethynyl)pyridin-4-yl)amino)cyclohexyl)methanol], the IC50 was found to be 3.9 nM in test [1] (setting [7]); 2 nM in test [1] (setting [15]); 2.4 nM in test [2] (setting [9]); 1.3 nM in test [2] (setting [16]); 38.2 nM in test [3] (setting [11]); 26.1 nM in test [3] (setting [17]). Besides, the IC50 in test [4] (setting [13]) is 1750 nM; in test [4] (setting [18]) it was 50.1 nM; in test [5] (IC50 WT (nM), 100 μM ATP), above 10000 nM; in test [5] (setting [19]) it was 295 nM.
Take `CNCC1(F)CCN(c2cc(Nc3ccnc(-c4cnn(S(=O)(=O)C5CC5)c4)n3)ncc2C#Cc2cnn(C)c2)CC1` [Example 382, 2-(1-(Cyclopropylsulfonyl)-1H-pyrazol-4-yl)-N-(4-(4-fluoro-4-((methylamino)methyl)piperidin-1-yl)-5-((1-methyl-1H-pyrazol-4-yl)ethynyl)pyridin-2-yl)pyrimidin-4-amine]: the IC50 in test [1] (setting [7]) came to 0.2 nM; in test [1] (setting [15]), 0.2 nM; in test [2] (setting [9]), 0.4 nM; in test [2] (setting [16]), 0.2 nM; in test [3] (setting [11]), 2.9 nM; in test [3] (setting [17]) it was 2.1 nM. Besides, the IC50 in test [4] (setting [13]) is 32.4 nM; in test [4] (setting [18]) it was 5.5 nM; in test [5] (IC50 WT (nM), 100 μM ATP) it was 5000 nM; in test [5] (setting [19]), 10.4 nM.
